Laboratory results published in US20190345087A1, “BIO-STABLE C[…] AND METHODS FOR ENHANCING THEIR PHYSIOLOGICAL CONCENTRATION” (Teewinot Technologies Limited, priority 2016, published 2019).
Converted amounts (≈) assume the structure as drawn.

Assays:
[1] = Chemical Stability Assay - Teorell-Stenhagen Buffer; type: physicochemical; conditions: for Teorell-Stenhagen Buffer pH 3.5 t1/2 / Teorell-Stenhagen Buffer pH 4.5 t1/2 / Teorell-Stenhagen Buffer pH 5.5 t1/2 / Teorell-Stenhagen Buffer pH 6.5 t1/2 / Teorell-Stenhagen Buffer pH 7.5 t1/2 / Teorell-Stenhagen Buffer pH 8.5 t1/2: 10 μM, 0.5% DMSO, 20° C.
Method: (§1) CBD methyl ether and CBD difluoromethyl ether were synthesized using a synthetic protocol described above and the identities of the desired ether products were confirmed by nuclear magnetic resonance spectroscopy as well as HPLC-MS. CBD methyl and/or CBD difluoromethyl ethers were incubated in individual eppendorf tubes in the following mediums: (a) simulated gastric fluid (SGF) with and without pepsin; (b) microsomal extract; (c) S9 fraction (hepatic); (d) Plasma; (e) Teorell-Stenhagen Buffer at pH 3.5, 4.5, 5.5, 6.5, 7.5, and 8.5; and (f) simulated intestinal fluid (SIF) with and without pancreatin. Each incubation mixture contained up to 0.5% of an organic solvent. DMSO is the organic solvent when SGF and Teorell-Stenhagen Buffer was used and acetonitrile is the organic solvent for incubation mixtures in microsomal extract, S9 fraction, and plasma. The concentration of CBD methyl and/or CBD difluoromethyl ether is 10 μM for stability studies in SGF and Teorell-Stenhagen Buffer. However, the concentration of CBD methyl and/or CBD difluoromethyl ether is 1 μM for stability studies in microsomal extract, S9 fraction, and plasma.
[…] Aliquots were taken at fixed intervals of time, typically at 0, 5, 10, 15, 30, and 45 minutes, or at fixed intervals of 1 h, 1.5 h, 2 h, 4 h, 6 h, 8 h, 24 h, and 48 hours. At each interval of time, two aliquots of each sample were collected. Each aliquot was extracted with ethyl acetate. The ethyl acetate layer was evaporated using a stream of nitrogen gas and the resulting residue was dissolved in 1:1 mixture of 0.1% aqueous HOAc and acetonitrile and analyzed by reverse-phase HPLC-MS.

[2] = S9 Intrinsic Clearance Assay; type: in vitro ADME, Human
Method: as §1
(§2) Stability studies were performed by incubating CBD methyl ether and/or CBD difluoromethyl ether at 37 ° C. in the desired medium. Aliquots were taken at fixed intervals of time, typically at 0, 5, 10, 15, 30, and 45 minutes, or at fixed intervals of 1 h, 1.5 h, 2 h, 4 h, 6 h, 8 h, 24 h, and 48 hours. At each interval of time, two aliquots of each sample were collected. Each aliquot was extracted with ethyl acetate. The ethyl acetate layer was evaporated using a stream of nitrogen gas and the resulting residue was dissolved in 1:1 mixture of 0.1% aqueous HOAc and acetonitrile and analyzed by reverse-phase HPLC-MS.
The stability of CBD methyl ether and CBD difluoromethyl ether in the hepatic S9 fraction is illustrated in Table 3. Both the methyl and difluoromethyl ethers were reasonably stable in S9 fraction with half-lives for de-etherification being about 5 hours for the methyl ether and about 3 hours for the difluoromethyl ether.
Intrinsic clearance (CLint) is clearance of drug by the livers if the drug is not bound to serum proteins or dependent on blood flow for delivery to the livers. Intrinsic clearance (CLint) is influenced by the affinity of the drug for its metabolizing liver enzyme and the number of enzymes present. CLint is subject to saturation and governed by Michaelis-menten (non-linear) elimination kinetics. Intrinsic clearance can be constant at low concentration, but progressively decreases as enzyme sites become saturated. Drugs with a strong affinity for their metabolizing enzymes or for which there are a large number of enzymes would be more efficiently extracted by the liver and thus, have a high extraction ratio (EH).
The hepatic extraction ratio EH is a good measure of expected first-pass metabolic clearance from liver (typical first pass after oral administration). The hepatic extraction ratio (Eh) is represented as follows:
Hepatic clearance (CLH) is the volume of blood that is cleared of drug per unit time by the liver, and QH is the rate of blood flow to the liver.
The hepatic extraction ratio EH is particularly useful for separating compounds into low/medium/high metabolic stability categories. Unlike in vitro intrinsic microsomal clearance (CLint), EH is species-nonspecific, because in its calculation species differences like liver weight, body weight, liver blood flow, etc. are normalized out, so EH values can be directly compared across species.

[3] = Microsomal Intrinsic Clearance Assay; type: in vitro ADME, Human
Method: as §1, §2
In vitro intrinsic microsomal clearance studies were performed to understand the metabolic fate of CBD ethers, as well as to identify metabolites produced by the degradation of the inventive CBD ethers.
The liver is the most important site of drug metabolism in the body. Approximately 60% of marketed compounds are cleared by hepatic CYP-mediated metabolism. See Drug Aletab. Dispos., 27(11) (1999) 1350. Liver microsomes are a subcellular fraction of hepatocytes, and they contain membrane bound drug metabolizing enzymes, Microsomes can be used to determine the in vitro intrinsic clearance of a compound. The use of species-specific microsomes can be used to enable an understanding of interspecies differences in drug metabolism.

[4] = Plasma Stability Assay; type: in vitro ADME; conditions: 1 μM, 37 ° C.
Method: as §1, with “The concentration of CBD methyl and/or CBD difluoromethyl ether is 10 μM for stability studies in SGF and Teorell-Stenhagen Buffer. However, the concentration of CBD methyl and/or CBD difluoromethyl ether is 1 μM for stability studies in microsomal extract, S9 fraction, and plasma.” left out
Stability studies were performed by incubating CBD methyl ether and/or CBD difluoromethyl ether at 37 ° C. in the desired medium. […] The ethyl acetate layer was evaporated using a stream of nitrogen gas and the resulting residue was dissolved in 1:1 mixture of 0.1% aqueous HOAc and acetonitrile and analyzed by reverse-phase HPLC-MS.
The methyl and difluoromethyl ethers of CBD were stable to degradation in plasma. The half-life of degradation as measured by LC-MS for both ethers was greater than 400 minutes.

[5] = Solubility Assay - PBS; type: physicochemical; conditions: for solubility in phosphate buffered saline / Solubility (μM) in PBS 7.4: PBS pH 7.4; for Solubility (μM) in PBS 7.4 / Solubility (μM) in T-S 7.5: λ 280 nm; for Solubility (μM) in T-S 7.5: Teorell-Stenhagen buffer pH 7.5
[6] = Stability in simulated gastric fluid (SGF) with and without pepsin and simulated intestinal fluid (SIF) with and without pancreatin; conditions: for SGF t1/2: SGF with pepsin; for SGF t1/2 / SGF No Pepsin t1/2: pH 1.2; for SGF t1/2 / SGF No Pepsin t1/2 / SIF t1/2 / SIF No Pancreatin t1/2: 10 μM, 0.5% DMSO, 37° C.; for SGF No Pepsin t1/2: SGF without pepsin; for SIF t1/2: SIF with pancreatin; for SIF t1/2 / SIF No Pancreatin t1/2: pH 6.8; for SIF No Pancreatin t1/2: SIF without pancreatin
[7] = pediatric epilepsy patients receiving CBD orally; cited from earlier work
[8] = 1 μM, protein 1.25 mg/mL, pH 7.4, 37° C
[9] = 1 μM, protein 1.25 mg/mL, pH 7.4, 37° C, NADPH, UDPGA, PAPS
[10] = 1 μM, microsomal protein 1 mg/mL, pH 7.4, 37° C.

| Molecule | Teorell-Stenhagen Buffer pH 3.5 t1/2 [1] | Teorell-Stenhagen Buffer pH 4.5 t1/2 [1] | Teorell-Stenhagen Buffer pH 5.5 t1/2 [1] | Teorell-Stenhagen Buffer pH 6.5 t1/2 [1] | Teorell-Stenhagen Buffer pH 7.5 t1/2 [1] | Teorell-Stenhagen Buffer pH 8.5 t1/2 [1] | Human S9 EH (hepatic extraction ratio) [2, 8] | Human S9 CLint [2, 9] | Human S9 t1/2 [2, 9] | half-life for de-etherification in S9 fraction ([2]; hepatic S9 fraction) | HLM CLint [3, 10] | HLM EH (hepatic extraction ratio) [3, 10] | HLM t1/2 [3, 10] | stability in liver microsome extract [3] | Plasma stability Human t1/2 [4] | solubility in phosphate buffered saline [5] | Solubility (μM) in PBS 7.4 [5] | Solubility (μM) in T-S 7.5 [5] | SGF t1/2 [6] | SGF No Pepsin t1/2 [6] | other results |
| --- | --- | --- | --- | --- | --- | --- | --- | --- | --- | --- | --- | --- | --- | --- | --- | --- | --- | --- | --- | --- | --- |
| CBD difluoromethyl ether | 10 h | 14 h | 11 h | 11 h | 11 h | 8 h | 31% | 3.2 µL/min/mg | 2.88 h | about 3 hours | 9.0 µL/min/mg | 26% | 1.28 h | relatively stable | >6.67 h | good solubility | 7.0 µM | 9.7 µM | >6.67 h | >6.67 h | SIF t1/2 [6]: >6.67 h; SIF No Pancreatin t1/2 [6]: >6.67 h |
| C=C(C)[C@@H]1CCC(C)=C[C@H]1c1c(O)cc(CCCCC)cc1O [CBD, cannabidiol, reference compound] |  |  |  |  |  |  |  |  |  |  |  |  |  |  |  |  |  |  |  |  | patients showing somnolence [7]: greater than 44%; CBD cyclized to mixture of Δ8-THC and Δ9-THC ([6]; in about 60 minutes, comparison in the SGF/SIF stability study): greater than 85% |
| C[C@]12CC[C@H]3[C@@H](CCC4=CC(=O)CC[C@@]43C)[C@@H]1CC[C@@H]2O [Testosterone, testosterone, reference compound] |  |  |  |  |  |  | 87% |  |  |  |  | 73% |  |  |  |  |  |  |  |  | microsomal CLint at 1 μM ([2]; human, hepatic S9 fraction, 1 μM, protein 1.25 mg/mL, pH 7.4, 37° C, NADPH, UDPGA, PAPS): 47 µL/min/mg; half-life at 1 μM ([2]; human, hepatic S9 fraction, 1 μM, protein 1.25 mg/mL, pH 7.4, 37° C, NADPH, UDPGA, PAPS, read-out: Human S9 t1/2): 0.483 h; half-life ([2]; human, hepatic S9 fraction, read-out: half-life of degradation in S9 fraction): ~0.483 h; microsomal CLint at 1 μM ([3]; human, liver microsomes, 1 μM, microsomal protein 1 mg/mL, pH 7.4, 37° C., read-out: HLM CLint): 69 µL/min/mg; half-life at 1 μM ([3]; human, liver microsomes, 1 μM, microsomal protein 1 mg/mL, pH 7.4, 37° C., read-out: HLM t1/2): 0.167 h |
| C=C(C)[C@@H]1CCC(C)=C[C@H]1c1c(O)cc(CCCCC)cc1OC [CBD Methyl Ether, CBD methyl ether] | >72 h | >72 h | >72 h | >72 h | >72 h | >72 h | 21% | 1.9 µL/min/mg | 4.77 h | about 5 hours | 8.7 µL/min/mg | 26% | 1.33 h | relatively stable | >6.67 h | good solubility | 8.4 µM (≈ 2.76 µg/mL) | 22 µM (≈ 7.23 µg/mL) | >6.67 h | >6.67 h | half-life of de-etherification in buffers at different pH's ([1]; Teorell-Stenhagen buffer pH 3.5-8.5): greater than 72 hours; SIF t1/2 [6]: >6.67 h; SIF No Pancreatin t1/2 [6]: >6.67 h |
